What was measured:
[1] = biological target: Tyrosine-protein phosphatase YopH (Yersinia pseudotuberculosis serotype I (strain IP32953), UniProt P08538); experiment: Inhibition of Yersinia pseudotuberculosis YopH
[2] = biological target: T1, Tyrosine-protein phosphatase non-receptor type 1 (Homo sapiens, UniProt P18031); experiment: Inhibition of PTP1B expressed in Escherichia coli BL21 (DE3) cells using p-nitrophenyl phosphate as substrate after 2 to 3 mins by spectrophotometric analysis
T1 sequence (P18031 whole entry): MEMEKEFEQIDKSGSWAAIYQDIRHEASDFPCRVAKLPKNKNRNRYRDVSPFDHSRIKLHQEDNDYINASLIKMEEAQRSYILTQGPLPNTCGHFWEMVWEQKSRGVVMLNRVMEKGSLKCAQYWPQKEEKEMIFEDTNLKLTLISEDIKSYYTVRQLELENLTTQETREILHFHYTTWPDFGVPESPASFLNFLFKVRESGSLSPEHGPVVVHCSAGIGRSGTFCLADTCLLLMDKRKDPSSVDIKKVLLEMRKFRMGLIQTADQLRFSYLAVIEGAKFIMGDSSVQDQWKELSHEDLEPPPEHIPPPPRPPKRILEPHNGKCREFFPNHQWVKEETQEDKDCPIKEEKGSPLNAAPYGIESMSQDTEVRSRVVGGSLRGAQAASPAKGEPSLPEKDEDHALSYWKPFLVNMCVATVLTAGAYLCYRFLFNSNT

[3] = biological target: T2, Tyrosine-protein phosphatase non-receptor type 1 (Homo sapiens) (UniProt P18031); experiment: Ratio of Ki for salicylic acid to compound Ki for PTP1B
T2 sequence (whole entry): T1 sequence (P18031 whole entry)

[4] = Selectivity ratio of Ki for PTP to Ki for PTP1B
[5] = organism: Homo sapiens; experiment: Selectivity ratio of Ki for human recombinant TC-PTP to Ki for PTP1B

Tyrosine-protein phosphatase YopH, sequence (P08538 whole entry): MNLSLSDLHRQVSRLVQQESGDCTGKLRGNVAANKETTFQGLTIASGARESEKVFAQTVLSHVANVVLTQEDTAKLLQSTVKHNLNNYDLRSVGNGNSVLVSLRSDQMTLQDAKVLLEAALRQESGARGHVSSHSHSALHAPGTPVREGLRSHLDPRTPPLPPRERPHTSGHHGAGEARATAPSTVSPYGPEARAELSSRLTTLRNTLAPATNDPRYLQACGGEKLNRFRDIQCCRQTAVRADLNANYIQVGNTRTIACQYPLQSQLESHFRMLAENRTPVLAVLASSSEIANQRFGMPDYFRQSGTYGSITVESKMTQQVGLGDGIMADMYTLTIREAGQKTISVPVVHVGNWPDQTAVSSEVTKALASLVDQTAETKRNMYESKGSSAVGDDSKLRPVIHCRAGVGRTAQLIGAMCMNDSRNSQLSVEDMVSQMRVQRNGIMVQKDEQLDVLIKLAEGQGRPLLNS

Row | SMILES | IC50 [1] [µM] | Ki [2] [µM] | further results
1 | O=C(O)c1cc2cc(O)ccc2cc1O | 60 |  | 
2 | O=C(O)c1cc2cccc(O)c2cc1O | 18 |  | 
3 | O=C(O)c1cc(NCn2c(=S)[nH]c3ccccc32)ccc1O |  | 61 | 
4 | O=C(O)c1cc(NCn2c(S)nc3ccccc32)ccc1O |  |  | Ratio Ki [3]: 320
5 | N[C@@H](Cc1ccc(C(F)(F)P(=O)(O)O)cc1)C(=O)O [PHOSPHONODIFLUOROMETHYL PHENYLALANINE] |  | 0.0024 | Ratio Ki [4]: 1000; Ratio [5]: 10
6 | O=C(O)c1ccccc1O [SALICYLIC ACID] |  | 19400 | Ki [1]: 1000 µM

Reference: ChEMBL document CHEMBL2010728, “Bicyclic benzofuran and indole-based salicylic acids as protein tyrosine phosphatase inhibitors” (Bioorg Med Chem, 2012)
